Measurements reported in patent US20230310643A1, “EXTRACORPOREAL CLEARING TRAPS BASED ON INVERSE ELECTRON DEMAND DIELS-ALDER CYCLOADDITION FOR (PRE)-TARGETED THERAPY AND DIAGNOSTICS” (RIGSHOSPITALET, priority 2020, published 2023).
Counter-ions that a name gives are not always drawn.

Tests used:
[1] = tested on: TCO-CC49; test: Trapping of TCO-CC49 from PBS solution by tetrazine-agarose columns, eluate titrated with [111In]8; details: n = 2; for % TE mean ± SD, 2nd evaluation, TCO-CC49: repeated 9 days after first evaluation, columns stored at 4° C.; for % TE mean ± SD, 1st evaluation, TCO-CC49: trapping efficiency, single pass, 100 μg/mL in PBS, 0.5 mL/min
Method: (§1) Tetrazine-agarose columns, two for each tetrazine, each prepared from 33 mg of dry NHS-agarose as described above (bed volume approx. 0.25 mL), and a control column prepared from tetrazine-free agarose, were equilibrated with 2-3 bed volumes of PBS. Antibody TCO-CC49 (approx. 1 TCO groups per 20 kDa molecular weight) or polymer TCO-KS254 (approx. 1 TCO group per 5 kDa molecular weight) were dissolved in PBS with to a mass concentration of 100 μg/mL. Aliquots of these solutions (0.4 mL) were pumped through the tetrazine-agarose columns at 0.5 mL/min pumping speed using an infusion pump (AL-1000, World Precision Instruments). When all solution had entered the resin bed, an aliquot of PBS (0.4 mL) was immediately added on top of it and pumped through the column at 0.5 mL/min. Total eluate (total volume approx. 0.8 mL) was collected and the amount of TCO-CC49 or TCO-KS254 was determined by ^111In-tetrazine ([^111In]8) titration.
(§2) For each column, trapping of both TCO-CC49 and TCO-KS254 was tested, and the column was rinsed with 2-3 volumes of PBS between tests. For pairs of columns with the same tetrazine, the order of testing (TCO-CC49 first or TCO-KS254 first) for one column was opposite to the order of testing for another column.
(§3) An aliquot of each trapping column eluate (6 μL) was mixed with an equal volume of 10 μM [111In]8 solution. Resulting mixtures were shaken at 37° C. for at least 1 hour to ensure full consumption of reactive TCO moieties. Then NuPage LDS Sample buffer was added to all mixtures according to the supplier's instructions, samples were heated for 10 min at 70° C. and applied on the NuPAGE 4-12% Bis-Tris SDS-PAGE gels. SDS-PAGE was run in MES-SDS buffer at 150V for 40-45 min. Separation was monitored by running SeeBlue® Plus2 Pre-Stained Protein Standard along with radiolabeled polymer samples. Control mixtures of 6 μL of [^111In]8 solution with 6 μL of PBS and reference mixtures of 6 μL of [^111In]8 solution and 6 μL of 50 μg/mL solutions of TCO-CC49 or TCO-KS254 were prepared and processed in the same manner. Developed gels were exposed against phosphor storage screens (PerkinElmer Multisensitive), which were then read in the Cyclone Plus phosphorimager (Packard Instruments, USA). Autoradiograms were quantified using Optiquant 3.0 software (Packard Instruments). Molecular weight reference ladder from the photo of the same gel aligned and merged to the autoradiogram is shown to the left in FIG. 8. Radioactivity found in the section of the gel corresponding to molecular weights of 60 kDa and above (using SeeBlue standards as reference) was considered polymer-bound or antibody-bound.
(§4) Trapping efficiency (TE) was calculated according to the formula:
(§5) % TE=100%×(1−% BTz/% BnoTz),
(§6) where % BTz is the percentage of polymer/antibody bound ^111In activity in the eluate collected from a column with tetrazine-conjugated agarose, while % BnoTz is the percentage of polymer/antibody bound ^111In activity in the eluate collected from a control column with tetrazine-free agarose.
(§7) For each column, evaluation of trapping efficiency for TCO-CC49 and TCO-KS254 was repeated 9 days after the first evaluation. In between evaluations, the columns were stored at 4° C. in phosphate-buffered saline with 0.1% vol/vol of ProClin™ 150 (Sigma-Aldrich).

[2] = Trapping of TCO-KS254 from PBS solution by tetrazine-agarose columns, eluate titrated with [111In]8; details: for % TE mean ± SD, 2nd evaluation, TCO-KS254: repeated 9 days after first evaluation, columns stored at 4° C.; for % TE mean ± SD, 2nd evaluation, TCO-KS254 / % TE mean ± SD, 1st evaluation, TCO-KS254: n = 2; for % TE mean ± SD, 1st evaluation, TCO-KS254: trapping efficiency, single pass, 100 μg/mL in PBS, 0.5 mL/min; for Trapping efficiencies of TCO-KS254 polymer compared with resins with shorter or no linker (tetrazines 1, 3 and 5): comparison in words, longer linkers
Method: as §1, §2, §3, §4, §5, §6, §7

[3] = Dissolution of amino-tetrazine in phosphate-buffered saline; format: physicochemical; details: PBS, 120 mM NaCl, 10 mM phosphate buffer pH 7.4
Method: Amino-tetrazine (1-6) was dissolved in phosphate-buffered saline (PBS, 120 mM NaCl, 10 mM phosphate buffer pH 7.4) to a concentration of 4 mM (tetrazine 5 could only be dissolved to a concentration of 2.7 mM). This solution was added to dry NHS-activated agarose resin (Pierce/Thermo Fisher Scientific) at the ratio of 1 mL solution per 60 mg resin. The resin was shaken in a plastic tube with a filter frit for 2-3 h at room temperature, then tetrazine solution was removed by vacuum filtration, and the resin was washed 3 times with PBS at the same mL-per-mg resin ratio. After that, Tris-HCl buffer (0.5M, pH 7.4) was added to the resin, the resin was shaken for 2-3 h at room temperature or overnight at 4° C. and washed 3 times with PBS. Control resin (tetrazine-free quenched agarose) was prepared in the same way, but pure PBS without amino-tetrazines was used for the initial incubation.

Concentration to which the tetrazine could be dissolved [3] | SMILES | % TE mean ± SD, 2nd evaluation, TCO-CC49 [1] | % TE mean ± SD, 1st evaluation, TCO-CC49 [1] | % TE mean ± SD, 2nd evaluation, TCO-KS254 [2] | % TE mean ± SD, 1st evaluation, TCO-KS254 [2] | Trapping efficiencies of TCO-KS254 polymer compared with resins with shorter or no linker (tetrazines 1, 3 and 5) [2]
– | NCc1ccc(-c2nncnn2)cc1.O=C(O)C(F)(F)F [Tetrazine 3, (4-(1,2,4,5-Tetrazin-3-yl)phenyl)methanaminium trifluoroacetate] | 96 ± 0.4% | 99 ± 1^ % | 78 ± 1% | 93 ± 10% | –
– | NCCOCCOCCOCCOCCOCCOCCOCCOCCOCCOCCOCCNC(=O)CCCC(=O)NCc1ccc(-c2nncnn2)cc1 [Tetrazine 4, 37,41-dioxo-41-((4-(1,2,4,5-Tetrazin-3-l)benzyl)amino)-3,6,9,12,15,18,21,24,27,30,33-undecaoxa-36-azahentetracontan-1-aminium trifluoroacetate] | 92 ± 0.4% | 96 ± 6^ % | 56 ± 2% | 75 ± 0.2% | lower trapping efficiencies
2700 µM | NCCCCCCCC(=O)Nc1ccc(-c2nnc(-c3ccccn3)nn2)nc1.O=C(O)C(F)(F)F [Tetrazine 5, 8-amino—N-(6-(6-(pyridin-2-yl)-1,2,4,5-tetrazin-3-yl)pyridin-3-yl)octanamide 2,2,2-trifluoroacetate] | 89 ± 3^ % | 98 ± 0.4% | 67 ± 0.3% | 85 ± 5% | –
– | NCCOCCOCCOCCOCCOCCOCCOCCOCCOCCOCCOCCNC(=O)CCCC(=O)Nc1ccc(-c2nnc(-c3ccccn3)nn2)nc1.O=C(O)C(F)(F)F [Tetrazine 6, 37,41-dioxo-41-((6-(6-(pyridin-2-yl)-1,2,4,5-tetrazin-3-yl)pyridin-3-yl)amino)-3,6,9,12,15,18,21,24,27,30,33-undecaoxa-36-azahentetracontan-1-aminium trifluoroacetate] | 72 ± 1^ % | 93 ± 7^ % | 50 ± 6% | 64 ± 0% | lower trapping efficiencies
